From patent publication US20160139132A1, “Method of Diagnosis or Prognosis of a Neoplasm Comprising Determining the Level of Expression of a Protein in Stromal Cells Adjacent to the Neoplasm” (Thomas Jefferson University, priority 2009, published 2016)

Columns and labels:
[1] = test system: MDA-MB-231 breast cancer cells co-injected with Cav-1-deficient stromal fibroblasts; experiment: Human tumor xenograft: nude mice co-injected with MDA-MB-231 cells and Cav-1-deficient stromal fibroblasts, treated with glycolysis inhibitors; type: in vivo; conditions: given individually, dosage of 200 mg/kg
Procedure: Treatment with Glycolysis Inhibitors Functionally Blocks Cancer-Associated Fibroblast Induced Breast Cancer Tumor Growth. […] Mice co-injected with Cav-1-deficient stromal fibroblasts and MDA-MB-231 breast cancer cells were treated with glycolysis inhibitors. The efficacy of two well-established glycolysis inhibitors, namely 2-DG (2-deoxy-D-glucose) and DCA (dichloro-acetate), individually or in combination were tested.
To provide additional experimental validation for the idea that an absence of stromal Cav-1 promotes breast cancer tumor growth and angiogenesis, a 2-component cell-system using xenografts in immuno-deficient female nude mice was developed. Briefly, the flanks of nude mice were injected with a mixture of 1) MDA-MB-231 cells (a highly aggressive human breast cancer cell line; 1.0×10-6 cells) and 2) stromal fibroblasts, derived from either WT or Cav-1 (−/−) null mice (0.3×10-6 cells). After 3 weeks, nude mice were sacrificed and breast cancer-derived tumors were subjected to analysis for growth (tumor weight and volume measurements) and immuno-histochemistry with markers of angiogenesis, such as CD31 (a.k.a, PECAM1).
In this two-component system, nude mice are co-injected with i) human breast cancer ceils (MDA-MB-231), and ii) stromal fibroblasts (WT versus Cav-1 (−/−) deficient). […]

[2] = test system: PD-ECGF/TP transfected cells; conditions: transfected compared with untransfected wild-type cells; Haraguchi (1993); cited from earlier work
[3] = test system: neovascularization; conditions: Oikawa (1988); cited from earlier work
[4] = test system: breast cancer patients; experiment: Progression-free survival of breast cancer patients (tissue microarray cohort) by stromal Cav-1 and tamoxifen use; type: in vivo, human; conditions: Tamoxifen use Yes vs No (ref); adjusted for T stage, N stage, Cav-1 score
Procedure: Breast tissues for tissue microarray construction were obtained from the Surgical Pathology files at the University of Michigan with Institutional Review Board (IRB) approval. The TMA contained tissues derived from 154 largely consecutive patients with invasive carcinomas of the breast, with follow-up information treated at the University of Michigan from 1987-1991. Clinical and pathological variables were determined following well-established criteria. All invasive carcinomas were graded according to the method described by Elston and Ellis 17; Lymphovascular Invasion (LV1) was classified as either present or absent. […]
Cav-1 expression in the tumor stroma was assessed by employing a standard immuno-peroxidase method (DakoCytornation LSAB2 System-HRP, Carpinteria, Calif.), using rabbit polyclonal antl-Cav-1 TgG (N-20; directed against Ntenninal residues 2-21 of human Cav-1; Santa Cruz Biotechnology, Santa Cruz, Calif.; dilution 1:500). The staining was scored semi-quantitatively as negative (0; no staining), weak (1; either diffuse weak staining or strong staining in less than 30% of stromal cells per core) and strong (2; defined as strong staining of 30% or more of the stromal cells). […]
For each patient, the date of breast cancer diagnosis, date of last follow-up, vital status at last follow-up, causes of death (breast cancer or other), and breast cancer recurrence, were recorded. […]

[5] = test system: Cav-1 in stromal fibroblasts co-cultured with MCF-7 cells; experiment: Co-culture of MCF-7 breast cancer cells with normal human fibroblasts: Cav-1 down-regulation; type: cell-based; conditions: co-culture with MCF-7 cells
Excerpt: Using this system, it was observed that within 5 days of co-culture MCF-7 cells down-regulate the expression of Cav-1 in adjacent stromal fibroblasts. This occurs via the degradation of Cav-1 in lysosomal structures, and can be inhibited by chloroquine, an anti-lysomal agent. Most importantly, MCF-7 cells induce oxidative stress in the adjacent fibroblasts via the over-production of reactive oxygen species (ROS). ROS, in turn, is known to stabilize and activate certain transcription factors, such as NFkB and HIF. NFkB- and HIF-are the master regulators of “inflammation” and “hypoxia/aerobic glycolysis” in the tumor microenvironment. Thus, in order to detect the activation of NFkB and HIF only in the fibroblast cell population, two different fibroblast cell lines engineered to express either a NFkB-luciferase or HIF-luciferase transcriptional reporter were used. […] As such, NFkB is activated first, while HIF is activated on day 4 and day 5 of coculture, coincident with Cav-1 down-regulation. Thus, cancer cells induce the Warburg effect in adjacent stromal fibroblasts via the activation of NFkB and HIF-target genes, leading to inflammation and aerobic glycolysis. These findings provide a mechanistic basis for the “Reverse Warburg Effect”, and a new high-throughput drug-screening assay for the identification of novel compounds that block the “Reverse Warburg Effect”.

**Q.** With O=CC[C@@H](O)[C@H](O)[C@H](O)CO [2-DG, 2-deoxy-D-glucose] as the compound, how does the “effect on tumor growth” value [1] read?
**A.** no effect

**Q.** For C[C@H]1O[C@@H](n2cc(F)c(=O)[nH]c2=O)[C@H](O)[C@@H]1O [5′DFUR, 5′-deoxy-5-fluorouridine], which antitumor effect [2] is on record?
**A.** dramatic enhancement of antitumor effect

**Q.** For O=C(O)C(Cl)Cl [DCA, dichloro-acetate], which “effect on tumor growth” value [1] is on record?
**A.** no effect

**Q.** Which neovascularization [3] does the source give for CC(=O)O[C@]1(C(C)=O)CC[C@H]2[C@@H]3C[C@H](C)C4=CC(=O)CC[C@]4(C)[C@H]3CC[C@@]21C [MPA, medroxyprogesterone acetate] here?
**A.** potently inhibited

**Q.** With CC/C(=C(\c1ccccc1)c1ccc(OCCN(C)C)cc1)c1ccccc1 [Tamoxifen] as the compound, how does the “Cox regression of Progression-Free Survival (PFS): Coefficient” value [4] read?
**A.** −0.476

**Q.** For CCN(CC)CCCC(C)Nc1ccnc2cc(Cl)ccc12 (stereo not drawn) [chloroquine], which “degradation of Cav-1 in lysosomal structures (Cav-1 down-regulation in adjacent stromal fibroblasts)” value [5] is on record?
**A.** inhibited
